# Laboratory results published in PubChem BioAssay (NCI).
# Values joined by “and” are separate entries in the source; they are usually repeats but may differ in a detail not shown here. Identical values can stand only once.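 These data come from cells grown in 96-well plates and exposed to compound for 48 hours at five concentrations. The concentration for 50% growth inhibition is given as GI50. The concentration for full growth arrest is given as TGI.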
# How the values were obtained:
# Experiment in all cases: NCI anticancer screen, dose series, 48 h
# NCI-H23 lung = test system: NCI-H23 lung
# SK-OV-3 ovarian = test system: SK-OV-3 ovarian
# CCRF-CEM leukemia = test system: CCRF-CEM leukemia
# SF-295 CNS = test system: SF-295 CNS
# MDA-MB-435 = test system: MDA-MB-435
# IGROV1 ovarian = test system: IGROV1 ovarian
# SNB-19 CNS = test system: SNB-19 CNS
# MDA-MB-231 breast = test system: MDA-MB-231 breast
# HCC-2998 colon = test system: HCC-2998 colon
# NCI-H522 lung = test system: NCI-H522 lung
Structure (SMILES),TGI (NCI-H23 lung),TGI (SK-OV-3 ovarian),TGI (CCRF-CEM leukemia),TGI (SF-295 CNS),GI50 (MDA-MB-435),TGI (MDA-MB-435),TGI (IGROV1 ovarian),GI50 (SNB-19 CNS),TGI (SNB-19 CNS),TGI (MDA-MB-231 breast),TGI (HCC-2998 colon),TGI (NCI-H522 lung),GI50 (NCI-H23 lung),GI50 (SK-OV-3 ovarian),GI50 (CCRF-CEM leukemia),GI50 (SF-295 CNS),GI50 (IGROV1 ovarian),GI50 (MDA-MB-231 breast),GI50 (HCC-2998 colon),GI50 (NCI-H522 lung)
COc1ccc2c(c1)n([O-])c1ccccc1[n+]2=O,> 100 µM and 91.4 µM,94.8 µM,> 100 µM,> 100 µM and 48.6 µM,65.4 µM and 22.2 µM,> 100 µM and 46.4 µM,19.1 µM,51.6 µM and 20 µM,> 100 µM and 89.6 µM,> 100 µM,> 100 µM,53.4 µM and 32.1 µM,–,–,–,–,–,–,–,–
O=C(/C=C/c1cc([N+](=O)[O-])ccc1Cl)c1ccccc1,36.2 µM,> 100 µM,> 100 µM,49.6 µM,14.2 µM,35.5 µM,31.7 µM,13.3 µM,28.3 µM,70.7 µM,9.27 µM,36.8 µM,15.6 µM,39 µM,26.9 µM,15.6 µM,4.6 µM,19.3 µM,3.3 µM,15 µM
NC(=O)c1ccc2nc(-c3ccc(Oc4ccc(Cl)cc4)cc3)[nH]c2c1,75 µM and 32.7 µM,75 µM and 48.2 µM,75 µM and 64.1 µM,> 75 µM,34.4 µM and 14.5 µM,75 µM and 31.2 µM,75 µM and 36.2 µM,> 75 µM and 22.5 µM,> 75 µM and 52.6 µM,> 75 µM and 36.3 µM,75 µM and 33.5 µM,75 µM and 75.2 µM,67.5 µM and 13.5 µM,17.7 µM and 23.1 µM,23.5 µM and 15.7 µM,> 75 µM,30.9 µM and 15.9 µM,> 75 µM and 18.8 µM,–,18.9 µM and 19.9 µM
CSc1ccc(NC(=S)NN(C)C)cc1,> 10 µM,> 10 µM,> 10 µM,> 10 µM,–,> 10 µM,> 10 µM,–,> 10 µM,> 10 µM,> 10 µM,> 10 µM,–,–,–,–,–,–,–,–
Nc1nc(-c2ccccc2)nc(N)c1N=O,41.9 µM,26 µM,> 100 µM,52.9 µM,4.57 µM,51.9 µM,54 µM,14.4 µM,33 µM,28.9 µM,27.6 µM,7.27 µM,14.6 µM,11.9 µM,5.8 µM,18.1 µM,11.8 µM,12.6 µM,14.1 µM,2.27 µM
NC(=O)c1cc(-c2ccc(F)cc2)cc(-c2ccncc2)c1N,> 25 µM,> 25 µM,> 25 µM,> 25 µM,> 25 µM,> 25 µM,> 25 µM,24.3 µM,> 25 µM,> 25 µM,> 25 µM,> 25 µM,> 25 µM,> 25 µM,> 25 µM,> 21.7 µM,> 25 µM,> 25 µM,> 25 µM,> 25 µM
COc1cc(O)c(C(=O)/C=C/c2ccc(O)cc2)c(O)c1[C@@H]1C[C@H](CCc2ccc(O)cc2)O[C@H](c2ccc(O)cc2)C1,9.3 µM,7.65 µM,10.6 µM,17.8 µM,3.89 µM,14 µM,16.5 µM,3.58 µM,13.3 µM,6.32 µM,4.02 µM,9.94 µM,3.14 µM,2.82 µM,3.28 µM,4.36 µM,2.88 µM,2.26 µM,2.25 µM,2.97 µM
CC(C)CCN=C(N)c1ccc(N2CCN(c3ccc(C(N)=NCCC(C)C)cc3)CC2)cc1,17.8 µM,25.5 µM,26.4 µM,38.5 µM,9.76 µM,24.2 µM,40.3 µM,6.52 µM,24.2 µM,52.7 µM,37.4 µM,73.4 µM,3.75 µM,4.45 µM,6.37 µM,6.68 µM,6.27 µM,20.6 µM,11.1 µM,8.73 µM
CCn1cc(C(=O)O)c(=O)c2cc3c(cc21)S(=O)(=O)CC3,> 100 µM,> 100 µM,> 100 µM,> 100 µM,–,> 100 µM,> 100 µM,–,> 100 µM,> 100 µM,> 100 µM,> 100 µM,–,–,–,–,–,–,–,–
CC(=Nc1ccccc1)C1=C(O)C(Cc2ccccc2)NC1=O (stereo not given),> 100 µM,> 61.8 µM,> 100 µM,0.0721 µM,0.0196 µM,0.0528 µM,> 100 µM,0.0765 µM,> 100 µM,> 100 µM,0.64 µM,0.0645 µM,0.0669 µM,0.0537 µM,0.0431 µM,0.0238 µM,0.0651 µM,0.224 µM,0.0779 µM,0.0216 µM
CC1OC(OC2C(O[C@H]3CC[C@@]4(C)C(=CC[C@H]5[C@@H]6C[C@@H]7O[C@]8(CC[C@H](C)CN8)[C@@H](C)[C@@H]7[C@@]6(C)CC[C@@H]54)C3)OC(CO)C(O)C2OC2OC(CO)C(O)C(O)C2O)C(O)C(O)C1O (stereo not given in full),32.5 µM,30.5 µM,39.3 µM,34.1 µM,–,50.7 µM,39.5 µM,–,35.6 µM,38.8 µM,32.2 µM,30.3 µM,–,–,–,–,–,–,–,–
Cn1ccnc1C(=O)/C=C/c1ccccc1,25.4 µM,35.9 µM,7.17 µM,29.1 µM,3.21 µM,10.2 µM,14 µM,–,–,16.8 µM,5.38 µM,14.9 µM,3.76 µM,4.55 µM,2.7 µM,11.4 µM,2.66 µM,3.39 µM,2.36 µM,3.38 µM
COc1cc2c3c(n(CCCI)c(=O)c2cc1OC)-c1cc2c(cc1C3=O)OCO2,> 100 µM,> 100 µM,> 100 µM,> 100 µM,6.06 µM,> 100 µM,> 100 µM,> 100 µM,> 100 µM,> 100 µM,> 100 µM,> 100 µM,7.24 µM,> 100 µM,0.873 µM,0.776 µM,5.24 µM,18.7 µM,5.61 µM,8.32 µM
O=[N+]([O-])c1c(Br)sc(Br)c1[N+](=O)[O-],28.9 µM,27 µM,4.15 µM,28.6 µM,2 µM,5.28 µM,5.38 µM,13.4 µM,27.9 µM,6.19 µM,26.2 µM,1.95 µM,11.3 µM,14 µM,1.11 µM,14.2 µM,1.98 µM,2.32 µM,12.3 µM,0.613 µM
CC1(C)[C@@H](O[C@@H]2OC[C@@H](O[C@@H]3O[C@H](CO)[C@@H](O)[C@H](O)[C@H]3O[C@@H]3OC[C@@H](O)[C@H](O)[C@H]3O)[C@H](O)[C@H]2O[C@@H]2O[C@H](CO)[C@@H](O)[C@H](O)[C@H]2O)CC[C@]2(C)[C@H]3CC[C@]45OC[C@@]6(CC[C@](C)(C=O)C[C@H]64)[C@H](O)C[C@@]5(C)[C@]3(C)CC[C@@H]12,2.12 µM,1.67 µM,3.13 µM,1.64 µM,0.851 µM,1.6 µM,1.84 µM,0.872 µM,1.77 µM,1.9 µM,1.75 µM,1.83 µM,0.984 µM,0.922 µM,1.02 µM,0.892 µM,0.872 µM,0.915 µM,0.931 µM,0.903 µM
Fc1ccc(Nc2nc3nonc3nc2Nc2ccc(F)cc2)cc1,0.852 µM,0.852 µM,10.1 µM,1.26 µM,0.338 µM,3.61 µM,13.8 µM,0.386 µM,16.1 µM,4.25 µM,5.49 µM,0.561 µM,0.264 µM,0.244 µM,0.35 µM,0.271 µM,0.57 µM,0.493 µM,0.414 µM,0.194 µM
COc1ccc(-c2nc3ccccn3c2/C=C/C(=O)c2cc(OC)c(OC)c(OC)c2)cc1,94.1 µM,> 100 µM,> 100 µM,69.5 µM,5.76 µM,27.6 µM,> 100 µM,25.2 µM,> 100 µM,> 100 µM,42 µM,23.4 µM,3.41 µM,14.8 µM,18.8 µM,15.2 µM,8.86 µM,5.22 µM,8.27 µM,3.12 µM
COc1cc2c(cc1C)NC(=O)/C2=C\c1cccc(Oc2ccccc2)c1,28.3 µM,40.9 µM,24.5 µM,31.8 µM,11.8 µM,25.9 µM,29.4 µM,14.3 µM,28.1 µM,37.4 µM,24.4 µM,34.4 µM,13.6 µM,22.3 µM,6.85 µM,16.8 µM,14.5 µM,16.3 µM,11.6 µM,13.5 µM
CN(CC(=O)N(Cc1ccc(C2CCCCC2)cc1)c1ccc(C(=O)O)c(O)c1)S(=O)(=O)c1c(F)c(F)c(F)c(F)c1F,26.9 µM,31.1 µM,4.69 µM,37.2 µM,3.39 µM,15.8 µM,4.08 µM,11.3 µM,25.1 µM,4.13 µM,5.72 µM,8.51 µM,10.6 µM,16.5 µM,1.84 µM,17.4 µM,1.85 µM,1.86 µM,2.37 µM,2.74 µM
CN1CCN(c2ccc3nc(-c4ccc5nc(-c6ccc(OCCC(C)(C)C)cc6)[nH]c5c4)[nH]c3c2)CC1,33 µM,36 µM,7.34 µM,6.22 µM,1.97 µM,3.99 µM,31.6 µM,2.15 µM,4.09 µM,5.83 µM,18.5 µM,38.1 µM,15.1 µM,18 µM,2.72 µM,2.34 µM,7.69 µM,2.85 µM,5.06 µM,13.6 µM
COc1cc2c(cc1Nc1nc(Nc3ccsc3C(N)=O)c3cc[nH]c3n1)N(C(=O)CN(C)C)CCC2(C)C,5.15 µM,6.94 µM,3.78 µM,7.39 µM,0.299 µM,2.49 µM,7.31 µM,3.62 µM,7.1 µM,7.42 µM,4.47 µM,3.76 µM,0.791 µM,3.64 µM,0.685 µM,3.33 µM,3.23 µM,3.22 µM,0.485 µM,0.764 µM
CN1c2ccccc2C(C)(C)C12C=Cc1cc(O)ccc1O2 (stereo not given),13.8 µM,8.81 µM,10.2 µM,12.8 µM,2.1 µM,4.49 µM,14.9 µM,2.94 µM,8.46 µM,16.3 µM,9.47 µM,24.9 µM,2.97 µM,3.41 µM,2.87 µM,2.71 µM,4.69 µM,3.93 µM,4.22 µM,3.6 µM
COc1ccc(Cn2cc3c(c2-c2ccc(OC)cc2)CCc2cnoc2-3)cc1,> 100 µM,> 100 µM,> 100 µM,0.96 µM,0.181 µM,0.48 µM,> 100 µM,0.679 µM,> 100 µM,> 53.7 µM,5.92 µM,0.572 µM,0.519 µM,0.571 µM,0.364 µM,0.27 µM,0.775 µM,1.41 µM,0.846 µM,0.199 µM
N#Cc1c(N)nc(N2CCOCC2)c(C#N)c1-c1cccnc1,–,99.6 µM,> 100 µM,> 100 µM,> 100 µM,> 100 µM,44.8 µM,77.2 µM,> 100 µM,> 100 µM,49.4 µM,81.7 µM,–,47.8 µM,39.3 µM,44.4 µM,17.2 µM,27.6 µM,8.8 µM,22.3 µM
COc1ccc2c(c1)C(=O)c1c-2c(Nc2ccc(Cl)cc2)nc2ccccc12,50.3 µM,–,> 100 µM,46.6 µM,38.6 µM,> 100 µM,52.1 µM,14.4 µM,44 µM,18.9 µM,> 100 µM,45.5 µM,13.6 µM,–,32 µM,16.7 µM,10.7 µM,4.46 µM,22.1 µM,10.1 µM
